Reference: EP4748837A1, “AROMATIC AMIDE DERIVATIVE, AND PREPARATION METHOD THEREFOR AND USE THEREOF” (Zhejiang Hisun Pharmaceutical Co., Ltd., priority 2023, dated 2025)

Columns and labels:
recombinant human KIF18A = target: T1, recombinant human KIF18A (Homo sapiens, UniProt Q8NI77); assay: Inhibition of KIF18A enzyme activity (ADP-Glo assay); assay type: biochemical; details: recombinant human KIF18A 100 nM, ATP 60 µM, tubulin, paclitaxel; read-out: IC50
T1 construct: purchased GenScript
Experimental: Inhibition degrees of the compounds of the present invention on recombinant human KIF18A enzyme activity in vitro were determined by the following method. An ADP-Glo™ Kinase Assay kit (article number V9102) from Promega Company was used in this method. Detailed experimental operation referred to the instruction of the kit.
An experimental process was briefly described as follows: a test compound was dissolved in DMSO first to prepare a stock solution, then the stock solution was gradiently diluted with a reaction buffer A ([…], 0.01% Pluronic F-68), and a final concentration of the test compound in the reaction system was in a range of 10000 nM-0.15 nM; and a KIF18A protein and ATP working solution was prepared by using a reaction buffer B (15 mM Tris, pH 7.5, 10 mM MgCl2, 0.01% Pluronic F-68, 37.5 µg/ml tubulin, 1.25 µM paclitaxel). The reaction was carried out in a 384-well microplate. The test compound and the recombinant human KIF18A protein (final concentration of 100 nM, entrusted to GenScript for expression) were added into the wells and incubated at room temperature for 20 minutes, and subsequently, an ATP solution (component V915A from the ADP-Glo™ Kinase Assay kit, final concentration of 60 µM) was added to the reaction solution and the system was incubated at room temperature for 20 minutes. Subsequently, 5 µL of ADP-Glo Reagent was added to the reaction systemand the system was incubated at room temperature for 50 minutes. Then, 10 µL of Kinase Detection Reagent was added to the reaction system and the system was incubated at room temperature for 30 minutes. After the incubation was ended, a chemiluminiscence intensity value of each well was determined by a microplate reader in a Luminescence mode.

OVCAR-3 cells = assay: Inhibition of OVCAR-3 cell proliferation (CellTiter-Glo cell viability); assay type: cell-based; details: Homo sapiens; OVCAR-3 cells (TP53 R248Q mutation), 72 hours culture with compound; read-out: IC50
Experimental: (§1) Influences of the compounds of the present invention on OVCAR-3 cell proliferation were determined by the following method. OVCAR-3 cells (containing TP53 R248Q mutation) were purchased from the Cell Bank of Shanghai Institute of Biochemistry and Cell Biology, Chinese Academy of Sciences, and cultured in an RPMI 1640 culture medium containing 10% fetal bovine serum, 100 U penicillin and 100 µg/mL streptomycin. A cell viability was determined by a CellTiter-Glo® Luminescent Cell Viability Assay kit (Promega, article number G7573).
(§2) An experimental method was operated according to steps in the instruction of the kit, which was briefly described as follows: a test compound was dissolved in DMSO first to prepare a 10 mM stock solution, then the stock solution was diluted with the culture medium to prepare a test sample, and a final concentration of the compound was in a range of 1000 nM-0.015 nM. Cells in a logarithmic growth phase were inoculated into a 96-well cell culture plate at a density of 1000 cells per well, cultured in a 5% CO2 incubator at 37°C overnight, and then the test compound was added to continuously culture for 72 hours. After the culture was ended, 50 uL of CellTiter-Glo detection solution was added to each well , shaken for 5 minutes, and then allowed to stand for 10 minutes, and subsequently, a luminance value of each well of the sample was read by a microplate reader in a Luminescence mode. By comparing with the numerical value of a control group (0.3% DMSO), a percentage inhibition rate of the compound at each concentration point was calculated, and then nonlinear regression analysis was carried out based on concentration logarithm-inhibition rate of the compound in GraphPad Prism 5 software, so as to obtain an IC50 value of the compound for inhibiting the cell proliferation, which was as shown in Table 1. Table 1 IC50 data of the compounds of the present invention for inhibiting OVCAR-3 cell proliferation

HT-29 cells = assay: Inhibition of HT-29 cell proliferation (CellTiter-Glo cell viability); assay type: cell-based; details: Homo sapiens; HT-29 cells (TP53 R273H mutation), 120 hours culture with compound; read-out: IC50
Experimental: as §1, with “HT-29” for “OVCAR-3”, “R273H” for “R248Q”, “a McCOY's 5A” for “an RPMI 1640”
as §2, with “for 120” for “for 72”, “each well,” for “each well ,”, “Table 2.” for “Table 1.”, “Table 2” for “Table 1”, “inhibiting HT-29” for “inhibiting OVCAR-3”

T1 sequence (Q8NI77 whole entry): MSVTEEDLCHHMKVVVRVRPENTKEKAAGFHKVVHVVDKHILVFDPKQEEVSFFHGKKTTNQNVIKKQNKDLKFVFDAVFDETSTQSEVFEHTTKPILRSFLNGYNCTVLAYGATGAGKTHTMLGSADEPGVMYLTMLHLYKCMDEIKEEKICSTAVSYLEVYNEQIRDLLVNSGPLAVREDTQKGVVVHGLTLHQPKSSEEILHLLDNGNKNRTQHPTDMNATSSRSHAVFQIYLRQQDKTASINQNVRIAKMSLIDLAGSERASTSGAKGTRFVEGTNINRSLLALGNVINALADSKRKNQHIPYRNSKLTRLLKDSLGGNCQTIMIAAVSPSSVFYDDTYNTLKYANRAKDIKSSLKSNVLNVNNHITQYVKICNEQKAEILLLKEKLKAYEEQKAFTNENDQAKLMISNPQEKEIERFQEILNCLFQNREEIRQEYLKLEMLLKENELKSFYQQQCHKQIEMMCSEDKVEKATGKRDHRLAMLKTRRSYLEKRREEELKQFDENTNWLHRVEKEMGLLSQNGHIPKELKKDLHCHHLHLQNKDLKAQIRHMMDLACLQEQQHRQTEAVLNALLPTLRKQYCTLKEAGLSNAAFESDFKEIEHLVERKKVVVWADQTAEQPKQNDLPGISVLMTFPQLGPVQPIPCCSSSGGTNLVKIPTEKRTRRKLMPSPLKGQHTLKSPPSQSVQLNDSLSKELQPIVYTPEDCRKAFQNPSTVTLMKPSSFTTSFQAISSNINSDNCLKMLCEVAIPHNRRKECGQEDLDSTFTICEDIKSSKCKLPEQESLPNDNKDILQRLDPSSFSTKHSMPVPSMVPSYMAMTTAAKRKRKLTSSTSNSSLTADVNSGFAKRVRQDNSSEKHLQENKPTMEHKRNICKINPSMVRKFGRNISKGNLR
T1 sequence (P68363 whole entry partner): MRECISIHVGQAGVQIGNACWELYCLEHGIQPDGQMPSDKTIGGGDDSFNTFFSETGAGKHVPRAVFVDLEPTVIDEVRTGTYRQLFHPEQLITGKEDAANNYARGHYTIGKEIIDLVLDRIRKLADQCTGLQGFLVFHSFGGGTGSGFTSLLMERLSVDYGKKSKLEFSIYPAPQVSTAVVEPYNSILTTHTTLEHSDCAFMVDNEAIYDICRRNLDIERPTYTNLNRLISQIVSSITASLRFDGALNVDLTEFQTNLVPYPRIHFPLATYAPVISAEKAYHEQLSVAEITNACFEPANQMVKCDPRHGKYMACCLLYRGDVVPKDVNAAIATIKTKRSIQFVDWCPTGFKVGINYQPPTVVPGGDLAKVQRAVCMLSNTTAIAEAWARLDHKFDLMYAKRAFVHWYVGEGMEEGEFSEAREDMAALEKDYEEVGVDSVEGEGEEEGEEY
T1 sequence (Q9BVA1 whole entry partner): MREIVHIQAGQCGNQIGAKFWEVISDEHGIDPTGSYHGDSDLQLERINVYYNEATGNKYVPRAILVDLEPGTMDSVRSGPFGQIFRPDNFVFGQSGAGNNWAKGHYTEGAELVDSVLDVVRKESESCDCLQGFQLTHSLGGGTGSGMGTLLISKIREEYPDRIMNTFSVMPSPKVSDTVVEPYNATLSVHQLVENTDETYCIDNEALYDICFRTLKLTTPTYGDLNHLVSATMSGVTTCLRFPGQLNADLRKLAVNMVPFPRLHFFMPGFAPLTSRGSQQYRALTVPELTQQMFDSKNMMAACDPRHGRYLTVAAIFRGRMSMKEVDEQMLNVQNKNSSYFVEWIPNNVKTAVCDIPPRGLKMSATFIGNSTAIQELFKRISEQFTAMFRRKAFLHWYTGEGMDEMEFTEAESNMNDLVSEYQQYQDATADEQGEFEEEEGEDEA

| SMILES | IC50 (recombinant human KIF18A) [nM] | IC50 (OVCAR-3 cells) [nM] | IC50 (HT-29 cells) [nM] |
| --- | --- | --- | --- |
| CCS(=O)(=O)Nc1ccc(C(=O)Nc2ccc(C(=O)O)c(N3CCC(F)(F)CC3)c2)c(N2CCC3(CC2)CC3)c1 [Example 2, 2-(4,4-difluoropiperidin-1-yl)-4-(4-(ethylsulfonamido)-2-(6-azaspiro[2.5]octan-6-yl)benzamido)benzoic acid] | 29.5 | 42.9 |  |
| CCS(=O)(=O)Nc1ccc(C(=O)Nc2ccc(-c3cccnn3)c(N3CCC(F)(F)CC3)c2)c(N2CCC3(CC2)CC3)c1 [Example 12, N-(3-(4,4-difluoropiperidin-1-yl)-4-(pyridazin-3-yl)phenyl)-4-(ethylsulfonamido)-2-(6-azaspiro[2.5]octan-6-yl)benzamide] | 62.4 | 2.5 | 3.9 |
| CCS(=O)(=O)Nc1ccc(C(=O)Nc2ccc(-c3ccnnc3)c(N3CCC(F)(F)CC3)c2)c(N2CCC3(CC2)CC3)c1 [Example 13, N-(3-(4,4-difluoropiperidin-1-yl)-4-(pyridazin-4-yl)phenyl)-4-(ethylsulfonamido)-2-(6-azaspiro[2.5]octan-6-yl)benzamide] | 82.9 | 5.9 | 11.5 |
| CCS(=O)(=O)Nc1ccc(C(=O)Nc2ccc(-c3ncccn3)c(N3CCC(F)(F)CC3)c2)c(N2CCC3(CC2)CC3)c1 [Example 14, N-(3-(4,4-difluoropiperidin-1-yl)-4-(pyrimidin-2-yl)phenyl)-4-(ethylsulfonamido)-2-(6-azaspiro[2.5]octan-6-yl)benzamide] | 120 | 5.9 | 10.1 |
| O=C(Nc1ccc(-c2cccnn2)c(N2CCC(F)(F)CC2)c1)c1ccc(NS(=O)(=O)C2CC2)cc1N1CCC2(CC1)CC2 [Example 15, 4-(cyclopropanesulfonamido)-N-(3-(4,4-difluoropiperidin-1-yl)-4-(pyridazin-3-yl)phenyl)-2-(6-azaspiro[2.5]octan-6-yl)b enzamide] | 69.4 | 3.7 | 4.7 |
| CCS(=O)(=O)Nc1ccc(C(=O)Nc2ccc(-c3nccn3C)c(N3CCC(F)(F)CC3)c2)c(N2CCC3(CC2)CC3)c1 [Example 26, N-(3-(4,4-difluoropiperidin-1-yl)-4-(1-methyl-1H-imidazol-2-yl)phenyl)-4-(ethylsulfonamido)-2-(6-azaspiro[2.5]octan-6-yl)benzamide] | 106 |  | 30.8 |
| CCS(=O)(=O)Nc1ccc(C(=O)Nc2ccc(-n3cnnc3)c(N3CCC(F)(F)CC3)c2)c(N2CCC3(CC2)CC3)c1 [Example 27, N-(3-(4,4-difluoropiperidin-1-yl)-4-(4H-1,2,4-triazol-4-yl)phenyl)-4-(ethylsulfonamido)-2-(6-azaspiro[2.5]octan-6-yl)benz amide] | 30.9 | 8.1 |  |
| CCS(=O)(=O)Nc1ccc(C(=O)Nc2ccc(-c3nnn[nH]3)c(N3CCC(F)(F)CC3)c2)c(N2CCC3(CC2)CC3)c1 [Example 33, N-(3-(4,4-difluoropiperidin-1-yl)-4-(1H-tetrazol-5-yl)phenyl)-4-(ethylsulfonamido)-2-(6-azaspiro[2.5]octan-6-yl)benzamide] | 3.8 |  |  |
| CCS(=O)(=O)Nc1ccc(C(=O)Nc2ccc(-c3nnnn3C)c(N3CCC(F)(F)CC3)c2)c(N2CCC3(CC2)CC3)c1 [Example 34, N-(3-(4,4-difluoropiperidin-1-yl)-4-(1-methyl-1H-tetrazol-5-yl)phenyl)-4-(ethylsulfonamido)-2-(6-azaspiro[2.5]octan-6-yl)benzamide] | 90 | 49.8 |  |
| CCS(=O)(=O)Nc1ccc(C(=O)Nc2ccc(-n3ccnc3)c(N3CCC(C)(O)CC3)c2)c(N2CCC3(CC2)CC3)c1 [Example 42, 4-(ethylsulfonamido)-N-(3-(4-hydroxy-4-methylpiperidin-1-yl)-4-(1H-imidazol-1-yl)pheny 1)-2-(6-azaspiro[2.5]octan-6-yl)benzamide] | 88 |  |  |
| CCS(=O)(=O)Nc1ccc(C(=O)Nc2ccc(-c3ncc[nH]3)c(N3CCC(C)(O)CC3)c2)c(N2CCC3(CC2)CC3)c1 [Example 43, 4-(ethylsulfonamido)-N-(3-(4-hydroxy-4-methylpiperidin-1-yl)-4-(1H-imidazol-2-yl)pheny 1)-2-(6-azaspiro[2.5]octan-6-yl)benzamide] | 115 | 18.8 |  |
| CCS(=O)(=O)Nc1ccc(C(=O)Nc2ccc(-n3ccnc3)c(C3(O)CCC(F)(F)CC3)c2)c(N2CCC3(CC2)CC3)c1 [Example 44, N-(3-(4,4-difluoro-1-hydroxycyclohexyl)-4-(1H-imidazol-1-yl)phenyl)-4-(ethylsulfonamido)-2-(6-azaspiro[2.5]octan-6-yl)benzamide] | 130 | 45.5 |  |
| CCS(=O)(=O)Nc1ccc(C(=O)Nc2ccc(-c3ccnnc3)c(OC3CC(F)(F)C3)c2)c(N2CCC3(CC2)CC3)c1 [Example 48, N-(3-(3,3-difluorocyclobutoxy)-4-(pyridazin-4-yl)phenyl)-4-(ethylsulfonamido)-2-(6-azaspiro[2.5]octan-6-yl)benzamide] | 102 | 14.4 |  |
| CCS(=O)(=O)Nc1ccc(C(=O)Nc2ccc(-c3nnco3)c(OC3CC(F)(F)C3)c2)c(N2CCC3(CC2)CC3)c1 [Example 50, N-(3-(3,3-difluorocyclobutoxy)-4-(1,3,4-oxadiazol-2-yl)phenyl)-4-(ethylsulfonamido)-2-(6-azaspiro[2.5]octan-6-yl)benzamide] | 74.3 | 19.1 |  |
| CCS(=O)(=O)Nc1ccc(C(=O)Nc2ccc(-c3nnco3)c(OCC(F)(F)F)c2)c(N2CCC3(CC2)CC3)c1 [Example 51, N-(4-(1,3,4-oxadiazol-2-yl)-3-(2,2,2-trifluoroethoxy)phenyl)-4-(ethylsulfonamido)-2-(6-azaspiro[2.5]octan-6-yl)benzamide] | 107 | 27.4 |  |
| CCS(=O)(=O)Nc1ccc(C(=O)Nc2ccc(-c3nnc(C)o3)c(OCC(F)(F)F)c2)c(N2CCC3(CC2)CC3)c1 [Example 52, 4-(ethylsulfonamido)-N-(4-(5-methyl-1,3,4-oxadiazol-2-yl)-3-(2,2,2-trifluoroethoxy)phenyl) -2-(6-azaspiro[2.5]octan-6-yl) benzamide] | 125 | 17.9 |  |
